Laboratory results reported in PubChem BioAssay AID488868 (Broad Institute, 2010).
The source made the active and inactive calls.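 How the source made its calls: active means compounds lowering nitrite signal whose fitted AC50 is at most ten times their top tested dose; inconclusive means flat drop of 30 to 70 percent, or poor curve fit; inactive means the rest.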

Key:
[1] = inhibitors of cytokine-induced nitrite release, dose response, cell-based, Griess absorbance, INS-1E, dry powder, set 2 (AID 488868); settings: INS-1E cytokine-induced nitrite, Griess absorbance, 48 h
[2] = test system: INS-1E cytokine-induced nitrite, Griess absorbance, 48 h; test: as above

Row | Compound | activity change, negative = inhibition ([1]; at 26 µM (top of the series)) | further results
1 | COc1ccc(S(=O)(=O)N(C)C[C@@H]2Oc3c(NC(=O)Nc4ccc(F)cc4)cccc3C(=O)N([C@H](C)CO)C[C@H]2C)cc1 | -19% (inactive) | –
2 | COc1ccc(S(=O)(=O)N(C)C[C@@H]2Oc3c(NS(C)(=O)=O)cccc3C(=O)N([C@@H](C)CO)C[C@H]2C)cc1 | -7.41% (inactive) | –
3 | C[C@@H]1CN([C@@H](C)CO)C(=O)c2cccc(NC(=O)Nc3cccc4ccccc34)c2O[C@H]1CN(C)S(=O)(=O)c1ccc2c(n1)N(C)CCO2 | – | activity change, negative = inhibition ([1]; at 12 µM (top of the series)): 1.75% (inactive)
4 | COc1ccc(S(=O)(=O)N(C)C[C@@H]2Oc3c(NC(=O)c4cnccn4)cccc3C(=O)N([C@@H](C)CO)C[C@H]2C)cc1 | 5.1% (inactive) | –
5 | C[C@@H]1CN([C@@H](C)CO)C(=O)c2cccc(NC(=O)Nc3cccc4ccccc34)c2O[C@H]1CN(C)S(=O)(=O)c1ccc2ncsc2c1 | -14.4% (inactive) | –
6 | COc1ccc(S(=O)(=O)N(C)C[C@@H]2Oc3c(NS(=O)(=O)c4ccc(C)cc4)cccc3C(=O)N([C@@H](C)CO)C[C@H]2C)cc1 | – | activity change, negative = inhibition ([1]; at 23.5 µM (top of the series)): -10.1% (inactive)
7 | C[C@@H]1CN([C@@H](C)CO)C(=O)c2cccc(NC(=O)Nc3cccc4ccccc34)c2O[C@H]1CN(C)S(=O)(=O)c1ccc2c(c1)OCCO2 | – | AC50 [2]: > 26 µM (inactive)
8 | COc1ccc(S(=O)(=O)N(C)C[C@H]2Oc3c(NC(=O)Nc4cccc5ccccc45)cccc3C(=O)N([C@H](C)CO)C[C@H]2C)cc1 | 0.786% (inactive) | –
9 | COc1ccc(S(=O)(=O)N(C)C[C@@H]2Oc3c(NC(=O)c4ccncc4)cccc3C(=O)N([C@@H](C)CO)C[C@H]2C)cc1 | 10% (inactive) | –
10 | COc1ccc(S(=O)(=O)N(C)C[C@@H]2Oc3c(NC(=O)Nc4ccccc4)cccc3C(=O)N([C@@H](C)CO)C[C@H]2C)cc1 | -14.9% (inactive) | –
11 | COc1ccc(S(=O)(=O)N(C)C[C@@H]2Oc3c(NC(=O)C4CC4)cccc3C(=O)N([C@@H](C)CO)C[C@H]2C)cc1 | – | activity change, negative = inhibition ([1]; at 23.5 µM (top of the series)): 1.94% (inactive)
12 | COc1ccc(S(=O)(=O)N(C)C[C@@H]2Oc3c(NC(=O)NC(C)C)cccc3C(=O)N([C@@H](C)CO)C[C@H]2C)cc1 | 6.79% (inactive) | –
13 | C[C@@H]1CN([C@H](C)CO)C(=O)c2cccc(NC(=O)Nc3ccccc3)c2O[C@H]1CN(C)S(=O)(=O)c1ccc(F)cc1 | -13.8% (inactive) | –
14 | COc1ccc(S(=O)(=O)N(C)C[C@@H]2Oc3c(NC(=O)Nc4ccc(C(F)(F)F)cc4)cccc3C(=O)N([C@@H](C)CO)C[C@H]2C)cc1 | -12% (inactive) | –
15 | C[C@@H]1CN([C@@H](C)CO)C(=O)c2cccc(NC(=O)Nc3cccc4ccccc34)c2O[C@H]1CN(C)S(C)(=O)=O | 0.629% (inactive) | –
16 | C[C@@H]1CN([C@@H](C)CO)C(=O)c2cccc(NC(=O)Nc3cccc4ccccc34)c2O[C@H]1CN(C)S(=O)(=O)c1cn(C)cn1 | -2.87% (inactive) | –
17 | C[C@@H]1CN([C@@H](C)CO)C(=O)c2cccc(NC(=O)Nc3cccc4ccccc34)c2O[C@H]1CN(C)S(=O)(=O)c1ccc2c(c1)OCCCO2 | -19.2% (inactive) | –
18 | C[C@@H]1CN([C@@H](C)CO)C(=O)c2cccc(NC(=O)Nc3cccc4ccccc34)c2O[C@H]1CN(C)S(=O)(=O)c1ccc2c(c1)oc(=O)n2C | 4.7% (inactive) | –
19 | Cc1ccc(S(=O)(=O)N(C)C[C@@H]2Oc3c(NC(=O)Nc4ccc(F)cc4)cccc3C(=O)N([C@H](C)CO)C[C@H]2C)cc1 | – | activity change, negative = inhibition ([1]; at 12 µM (top of the series)): -0.835% (inactive)
20 | C[C@H]1CN([C@@H](C)CO)C(=O)c2cccc(NC(=O)NC3CCCCC3)c2O[C@@H]1CN(C)S(C)(=O)=O | -3.58% (inactive) | –
21 | COc1ccc(S(=O)(=O)N(C)C[C@@H]2Oc3c(NC(=O)Nc4cccc5ccccc45)cccc3C(=O)N(C(C)C)C[C@H]2C)cc1 | 12.7% (inactive) | –
22 | C[C@@H]1CN([C@@H](C)CO)C(=O)c2cccc(NC(=O)Nc3ccc(F)cc3)c2O[C@H]1CN(C)S(=O)(=O)c1ccc(F)cc1 | -1.84% (inactive) | –
23 | COc1ccc(S(=O)(=O)N(C)C[C@@H]2Oc3c(NS(=O)(=O)c4ccccc4)cccc3C(=O)N([C@@H](C)CO)C[C@H]2C)cc1 | 0.0255% (inactive) | –
24 | COc1ccc(S(=O)(=O)N(C)C[C@@H]2Oc3c(cccc3N(C)C)C(=O)N([C@@H](C)CO)C[C@H]2C)cc1 | – | activity change, negative = inhibition ([1]; at 23.5 µM (top of the series)): -2.44% (inactive)
25 | COc1ccc(S(=O)(=O)N(C)C[C@H]2Oc3c(NC(=O)Nc4cccc5ccccc45)cccc3C(=O)N([C@H](C)CO)C[C@@H]2C)cc1 | -26.2% (inactive) | –

Row | Compound | activity change, negative = inhibition ([1]; at 26 µM (top of the series)) | further results
26 | COc1ccc(S(=O)(=O)N(C)C[C@@H]2Oc3c(NS(=O)(=O)c4cn(C)cn4)cccc3C(=O)N([C@@H](C)CO)C[C@H]2C)cc1 | 4.39% (inactive) | –
27 | COc1ccc(S(=O)(=O)N(C)C[C@@H]2Oc3c(NC(=O)Nc4ccc5c(c4)OCO5)cccc3C(=O)N([C@@H](C)CO)C[C@H]2C)cc1 | -14.3% (inactive) | –
28 | C[C@@H]1CN([C@@H](C)CO)C(=O)c2cccc(NC(=O)Nc3ccccc3)c2O[C@H]1CN(C)S(=O)(=O)c1ccc(F)cc1 | -5.13% (inactive) | –
29 | Cc1ccc(S(=O)(=O)N(C)C[C@@H]2Oc3c(NC(=O)Nc4ccccc4)cccc3C(=O)N([C@H](C)CO)C[C@H]2C)cc1 | -21% (inactive) | –
30 | COc1ccc(S(=O)(=O)Nc2cccc3c2O[C@@H](CN(C)S(=O)(=O)c2ccc(OC)cc2)[C@H](C)CN([C@@H](C)CO)C3=O)cc1 | -6.55% (inactive) | –
31 | COc1ccc(S(=O)(=O)N(C)C[C@@H]2Oc3c(NS(=O)(=O)c4ccc(F)cc4)cccc3C(=O)N([C@@H](C)CO)C[C@H]2C)cc1 | -1.11% (inactive) | –
32 | C[C@@H]1CN([C@H](C)CO)C(=O)c2cccc(NC(=O)Nc3ccc(F)cc3)c2O[C@H]1CN(C)S(=O)(=O)c1ccc(Cl)cc1 | – | activity change, negative = inhibition ([1]; at 12 µM (top of the series)): 1.53% (inactive)
33 | COc1ccc(S(=O)(=O)N(C)C[C@@H]2Oc3c(NC(=O)C4CCOCC4)cccc3C(=O)N([C@@H](C)CO)C[C@H]2C)cc1 | – | activity change, negative = inhibition ([1]; at 23.5 µM (top of the series)): 3.17% (inactive)
34 | Cc1ccc(S(=O)(=O)N(C)C[C@@H]2Oc3c(NC(=O)Nc4ccccc4)cccc3C(=O)N([C@@H](C)CO)C[C@H]2C)cc1 | -12.1% (inactive) | –
35 | COc1ccc(S(=O)(=O)N(C)C[C@@H]2Oc3c(NC(=O)c4cc(C)nn4C)cccc3C(=O)N([C@@H](C)CO)C[C@H]2C)cc1 | -1.39% (inactive) | –
36 | COc1ccc(S(=O)(=O)N(C)C[C@@H]2Oc3c(NC(=O)Nc4ccc(F)cc4)cccc3C(=O)N([C@@H](C)CO)C[C@H]2C)cc1 | – | activity change, negative = inhibition ([1]; at 23.5 µM (top of the series)): -9.52% (inactive)
37 | C[C@@H]1CN([C@@H](C)CO)C(=O)c2cccc(NC(=O)Nc3ccccc3)c2O[C@H]1CN(C)S(=O)(=O)c1ccc(Cl)cc1 | -5.63% (inactive) | –
38 | COc1ccc(S(=O)(=O)N(C)C[C@@H]2Oc3c(NC(=O)Nc4ccccc4)cccc3C(=O)N([C@H](C)CO)C[C@H]2C)cc1 | – | AC50 [2]: > 26 µM (inactive)
39 | C[C@@H]1CN([C@@H](C)CO)C(=O)c2cccc(NC(=O)Nc3cccc4ccccc34)c2O[C@H]1CN(C)C(=O)Nc1ccccc1 | – | activity change, negative = inhibition ([1]; at 12 µM (top of the series)): 11.5% (inactive)
40 | C[C@@H]1CN([C@@H](C)CO)C(=O)c2cccc(NC(=O)Nc3cccc4ccccc34)c2O[C@H]1CN(C)S(=O)(=O)c1ccc2c(c1)OCC2 | -32.4% (inactive) | –
41 | COc1ccc(S(=O)(=O)N(C)C[C@@H]2Oc3c(NC(=O)Nc4c(C)noc4C)cccc3C(=O)N([C@@H](C)CO)C[C@H]2C)cc1 | -3.17% (inactive) | –
42 | COc1ccc(S(=O)(=O)N(C)C[C@@H]2Oc3c(NS(=O)(=O)c4ccc(Cl)cc4)cccc3C(=O)N([C@@H](C)CO)C[C@H]2C)cc1 | 4.24% (inactive) | –
43 | COc1ccc(NC(=O)Nc2cccc3c2O[C@@H](CN(C)S(=O)(=O)c2ccc(OC)cc2)[C@H](C)CN([C@@H](C)CO)C3=O)cc1 | -7.77% (inactive) | –
44 | COc1ccc(S(=O)(=O)N(C)C[C@H]2Oc3c(NC(=O)Nc4cccc5ccccc45)cccc3C(=O)N([C@@H](C)CO)C[C@@H]2C)cc1 | -8.36% (inactive) | –
45 | COc1ccc(S(=O)(=O)N(C)C[C@@H]2Oc3c(NC(=O)C4CCCCC4)cccc3C(=O)N([C@@H](C)CO)C[C@H]2C)cc1 | 1.58% (inactive) | –
46 | COc1ccc(S(=O)(=O)N(C)C[C@@H]2Oc3c(NC(=O)c4ccc(-c5nccs5)cc4)cccc3C(=O)N([C@@H](C)CO)C[C@H]2C)cc1 | -0.0778% (inactive) | –
47 | COc1ccc(S(=O)(=O)N(C)C[C@@H]2Oc3c(NC(=O)Nc4cccc5ccccc45)cccc3C(=O)N([C@@H](C)CO)C[C@H]2C)cc1OC | 2.18% (inactive) | –
48 | COc1ccc(S(=O)(=O)N(C)C[C@@H]2Oc3c(NC(=O)Nc4cccc5ccccc45)cccc3C(=O)N([C@@H](C)CO)C[C@@H]2C)cc1 | -6.51% (inactive) | –
49 | COc1ccc(S(=O)(=O)N(C)C[C@@H]2Oc3c(NC(=O)Nc4cccc5ccccc45)cccc3C(=O)N([C@H](C)CO)C[C@@H]2C)cc1 | -1.65% (inactive) | –
